Laboratory results taken from patent US11219221B2 (FarmHannong Co., Ltd., priority 2017, dated 2022).

Assays:
Assay type in all cases: cell-based
Settings in all cases: LB agar, 37° C., light, 16 to 20 hours
[1] = test system: CyPPO17 (SEQ ID NO: 3) variant A166L in PPO-deficient E. coli BT3(ΔPPO)
Experimental: (§1) The mutated CyPPO gene obtained from the Example 2 was transformed to BT3 (ΔPPO) strain which is deficient of PPO activity and cultured in LB media with PPO-inhibiting herbicide, thereby examining whether growth of transformed BT3 was not inhibited.
(§2) BT3 competent cells were transformed with the pET303-CyPPO16 and pET303-CyPPO17 plasmids and those with a mutation(s) constructed in Example 2 respectively, and were cultured in LB agar media containing carbenicillin (Gold Biotechnology, Co., Ltd.).
(§3) Single colony of E. coli transformed with each CyPPO gene was cultured in 3 ml of LB broth containing carbenicillin overnight, and then was subcultured until absorbance (0D600) reached 0.5 to 1. Then, it was diluted with LB broth to OD600=0.5. Again, the diluted solution was serially diluted 4 times by a factor of one tenth.
(§4) The LB agar media (LB 25 g/l, Bacto agar 15 g/l) containing carbenicillin (100 μg/ml) and 0 to 4,000 μM of various herbicides dissolved in DMSO was prepared. Next, 10 μl of each diluted solution was dropped on the plate and cultured at 37° C. under light (Tables 7 and 9, FIGS. 2 to 6, and 18 to 22) or dark (Tables 8 and 10, FIGS. 7 to 17, and 23 to 33) for 16 to 20 hours. Then, extent of tolerance was evaluated.
(§5) The extent of herbicide tolerance of the mutated genes was evaluated by comparing that of mutated genes with that of wild type. The relative tolerance was represented with “+” as a factor of 10 times.
(§6) In Tables 7 to 10, tolerance level was presented as of tolerance of wild type and of variants equivalent to that of wild type, and was done as ‘+’ per each 10 fold resistance until ‘+++++’ as maximal resistance.

[2] = test system: CyPPO17 (SEQ ID NO: 3) variant F359M in PPO-deficient E. coli BT3(ΔPPO)
Experimental: as §1, §2, §3, §4, §5, §6

[3] = test system: CyPPO17 (SEQ ID NO: 3) variant F359C in PPO-deficient E. coli BT3(ΔPPO)
Experimental: as §1, §2, §3, §4, §5, §6

[4] = test system: CyPPO16 (SEQ ID NO: 1) variant F360C in PPO-deficient E. coli BT3(ΔPPO)
Experimental: as §1, §2, §3, §4, §5, §6

[5] = test system: CyPPO16 (SEQ ID NO: 1) variant F360M in PPO-deficient E. coli BT3(ΔPPO)
Experimental: as §1, §2, §3, §4, §5, §6

[6] = test system: CyPPO17 (SEQ ID NO: 3) variant F359L in PPO-deficient E. coli BT3(ΔPPO)
Experimental: as §1, §2, §3, §4, §5, §6

[7] = test system: CyPPO17 (SEQ ID NO: 3) variant F359I in PPO-deficient E. coli BT3(ΔPPO)
Experimental: as §1, §2, §3, §4, §5, §6

[8] = test system: CyPPO16 (SEQ ID NO: 1) variant F360V in PPO-deficient E. coli BT3(ΔPPO)
Experimental: as §1, §2, §3, §4, §5, §6

[9] = test system: CyPPO16 (SEQ ID NO: 1) variant F360I in PPO-deficient E. coli BT3(ΔPPO)
Experimental: as §1, §2, §3, §4, §5, §6

[10] = test system: CyPPO16 (SEQ ID NO: 1) variant A162C in PPO-deficient E. coli BT3(ΔPPO)
Experimental: as §1, §2, §3, §4, §5, §6

[11] = test system: CyPPO16 (SEQ ID NO: 1) variant A162L in PPO-deficient E. coli BT3(ΔPPO)
Experimental: as §1, §2, §3, §4, §5, §6

[12] = test system: CyPPO17 (SEQ ID NO: 3) variant A166C in PPO-deficient E. coli BT3(ΔPPO)
Experimental: as §1, §2, §3, §4, §5, §6

[13] = test system: CyPPO17 (SEQ ID NO: 3) variant V304M in PPO-deficient E. coli BT3(ΔPPO)
Experimental: as §1, §2, §3, §4, §5, §6

[14] = test system: CyPPO16 (SEQ ID NO: 1) variant V305M in PPO-deficient E. coli BT3(ΔPPO)
Experimental: as §1, §2, §3, §4, §5, §6

[15] = test system: CyPPO16 (SEQ ID NO: 1) variant F360L in PPO-deficient E. coli BT3(ΔPPO)
Experimental: as §1, §2, §3, §4, §5, §6

[16] = test system: CyPPO17 wild type (SEQ ID NO: 3) in PPO-deficient E. coli BT3(ΔPPO)
Experimental: as §1, §2, §3, §4
(§7) The extent of herbicide tolerance of the mutated genes was evaluated by comparing that of mutated genes with that of wild type. The relative tolerance was represented with “+” as a factor of 10 times. Evaluation result was listed in Tables 7 to10 and FIGS. 2 to 33:
(§8) In Tables 7 to 10, tolerance level was presented as of tolerance of wild type and of variants equivalent to that of wild type, and was done as ‘+’ per each 10 fold resistance until ‘+++++’ as maximal resistance. (Tolerance level was evaluated by relative growth level of variants to that of wild type in the media containing highest concentration of herbicide; ‘+’=1-9 fold higher tolerance, ‘++’=10-99 fold higher tolerance, ‘+++’=100-999 fold higher tolerance, ‘++++’=1,000-9,999 fold higher tolerance, ‘+++++’=more than 10,000 fold higher tolerance)

[17] = test system: CyPPO16 wild type (SEQ ID NO: 1) in PPO-deficient E. coli BT3(ΔPPO)
Experimental: as §1, §2, §3, §4, §7, §8

Compound | Herbicide tolerance (relative to wild type) [1] | Herbicide tolerance (relative to wild type) [2] | Herbicide tolerance (relative to wild type) [3] | Herbicide tolerance (relative to wild type) [4] | Herbicide tolerance (relative to wild type) [5] | Herbicide tolerance (relative to wild type) [6] | Herbicide tolerance (relative to wild type) [7] | Herbicide tolerance (relative to wild type) [8] | Herbicide tolerance (relative to wild type) [9] | Herbicide tolerance (relative to wild type) [10] | Herbicide tolerance (relative to wild type) [11] | Herbicide tolerance (relative to wild type) [12] | Herbicide tolerance (relative to wild type) [13] | Herbicide tolerance (relative to wild type) [14] | Herbicide tolerance (relative to wild type) [15] | Herbicide tolerance (relative to wild type) [16] | Herbicide tolerance (relative to wild type) [17]
CS(=O)(=O)NC(=O)c1cc(Oc2ccc(C(F)(F)F)cc2Cl)ccc1[N+](=O)[O-] [fomesafen] | ++ (10-99 fold higher tolerance) | ++ (10-99 fold higher tolerance) | + (1-9 fold higher tolerance) | ++ (10-99 fold higher tolerance) | +++ (100-999 fold higher tolerance) | + (1-9 fold higher tolerance) | + (1-9 fold higher tolerance) | + (1-9 fold higher tolerance) | + (1-9 fold higher tolerance) | ++ (10-99 fold higher tolerance) | ++ (10-99 fold higher tolerance) | + (1-9 fold higher tolerance) | ++ (10-99 fold higher tolerance) | ++ (10-99 fold higher tolerance) | +++ (100-999 fold higher tolerance) | − | −
CCOC(=O)COc1cc(-c2nn(C)c(OC(F)F)c2Cl)c(F)cc1Cl [pyraflufen-ethyl] | ++ (10-99 fold higher tolerance) | ++ (10-99 fold higher tolerance) | + (1-9 fold higher tolerance) | +++ (100-999 fold higher tolerance) | ++ (10-99 fold higher tolerance) | ++ (10-99 fold higher tolerance) | ++ (10-99 fold higher tolerance) | ++ (10-99 fold higher tolerance) | ++ (10-99 fold higher tolerance) | +++ (100-999 fold higher tolerance) | +++ (100-999 fold higher tolerance) | ++ (10-99 fold higher tolerance) | + (1-9 fold higher tolerance) | +++ (100-999 fold higher tolerance) | ++ (10-99 fold higher tolerance) | − | −
CC(C)=C1OC(=O)N(c2cc(OC3CCCC3)c(Cl)cc2F)C1=O [pentoxazone] | ++ (10-99 fold higher tolerance) | ++ (10-99 fold higher tolerance) | + (1-9 fold higher tolerance) | ++ (10-99 fold higher tolerance) | + (1-9 fold higher tolerance) | + (1-9 fold higher tolerance) | ++ (10-99 fold higher tolerance) | + (1-9 fold higher tolerance) | + (1-9 fold higher tolerance) | ++ (10-99 fold higher tolerance) | ++ (10-99 fold higher tolerance) | + (1-9 fold higher tolerance) | + (1-9 fold higher tolerance) | + (1-9 fold higher tolerance) | + (1-9 fold higher tolerance) | − | −
C#CCN(C)c1c(C#N)cnn1-c1nn2c(c1Cl)CCCC2 [pyraclonil] | + (1-9 fold higher tolerance) | + (1-9 fold higher tolerance) | + (1-9 fold higher tolerance) | ++ (10-99 fold higher tolerance) | + (1-9 fold higher tolerance) | + (1-9 fold higher tolerance) | + (1-9 fold higher tolerance) | + (1-9 fold higher tolerance) | + (1-9 fold higher tolerance) | ++ (10-99 fold higher tolerance) | ++ (10-99 fold higher tolerance) |  |  | + (1-9 fold higher tolerance) | + (1-9 fold higher tolerance) | − | −
O=C(O)c1cc(Oc2ccc(C(F)(F)F)cc2Cl)ccc1[N+](=O)[O-] [acifluorfen] | +++ (100-999 fold higher tolerance) | +++ (100-999 fold higher tolerance) | + (1-9 fold higher tolerance) | ++ (10-99 fold higher tolerance) | + (1-9 fold higher tolerance) | + (1-9 fold higher tolerance) | + (1-9 fold higher tolerance) | + (1-9 fold higher tolerance) | + (1-9 fold higher tolerance) | ++ (10-99 fold higher tolerance) | ++ (10-99 fold higher tolerance) | +++ (100-999 fold higher tolerance) | +++ (100-999 fold higher tolerance) | ++ (10-99 fold higher tolerance) | + (1-9 fold higher tolerance) | − | −
